Measured values as given in article PMC6713165, “Identification of 1H-pyrazolo[3,4-b]pyridine derivatives as potent ALK-L1196M inhibitors” (Journal of Enzyme Inhibition and Medicinal Chemistry, 2019).
Where two headings read alike, the source gives them in different places.

What was measured:
ALK-L1196M = ALK-L1196M (Homo sapiens, UniProt Q9UM73, L1196M); test: Radiometric biochemical kinase assay, ALK-L1196M; conditions: for IC50: radiometric kinase assay, 10 µM ATP
Protocol: (§1) Biochemical kinase assay was performed by methods previously reported. Kinase reactions of all test compounds except 10g were carried out at 10 µM ATP. Kinase reaction of 10g was performed at three different concentrations of ATP (10/50/100 µM).

ALK-wt = ALK-wt (Homo sapiens, UniProt Q9UM73); test: Radiometric biochemical kinase assay, ALK-wt; conditions: radiometric kinase assay, 10 µM ATP; for IC50: read-out: IC50 ALK-wt
ALK-wt, sequence (Q9UM73 19-1620): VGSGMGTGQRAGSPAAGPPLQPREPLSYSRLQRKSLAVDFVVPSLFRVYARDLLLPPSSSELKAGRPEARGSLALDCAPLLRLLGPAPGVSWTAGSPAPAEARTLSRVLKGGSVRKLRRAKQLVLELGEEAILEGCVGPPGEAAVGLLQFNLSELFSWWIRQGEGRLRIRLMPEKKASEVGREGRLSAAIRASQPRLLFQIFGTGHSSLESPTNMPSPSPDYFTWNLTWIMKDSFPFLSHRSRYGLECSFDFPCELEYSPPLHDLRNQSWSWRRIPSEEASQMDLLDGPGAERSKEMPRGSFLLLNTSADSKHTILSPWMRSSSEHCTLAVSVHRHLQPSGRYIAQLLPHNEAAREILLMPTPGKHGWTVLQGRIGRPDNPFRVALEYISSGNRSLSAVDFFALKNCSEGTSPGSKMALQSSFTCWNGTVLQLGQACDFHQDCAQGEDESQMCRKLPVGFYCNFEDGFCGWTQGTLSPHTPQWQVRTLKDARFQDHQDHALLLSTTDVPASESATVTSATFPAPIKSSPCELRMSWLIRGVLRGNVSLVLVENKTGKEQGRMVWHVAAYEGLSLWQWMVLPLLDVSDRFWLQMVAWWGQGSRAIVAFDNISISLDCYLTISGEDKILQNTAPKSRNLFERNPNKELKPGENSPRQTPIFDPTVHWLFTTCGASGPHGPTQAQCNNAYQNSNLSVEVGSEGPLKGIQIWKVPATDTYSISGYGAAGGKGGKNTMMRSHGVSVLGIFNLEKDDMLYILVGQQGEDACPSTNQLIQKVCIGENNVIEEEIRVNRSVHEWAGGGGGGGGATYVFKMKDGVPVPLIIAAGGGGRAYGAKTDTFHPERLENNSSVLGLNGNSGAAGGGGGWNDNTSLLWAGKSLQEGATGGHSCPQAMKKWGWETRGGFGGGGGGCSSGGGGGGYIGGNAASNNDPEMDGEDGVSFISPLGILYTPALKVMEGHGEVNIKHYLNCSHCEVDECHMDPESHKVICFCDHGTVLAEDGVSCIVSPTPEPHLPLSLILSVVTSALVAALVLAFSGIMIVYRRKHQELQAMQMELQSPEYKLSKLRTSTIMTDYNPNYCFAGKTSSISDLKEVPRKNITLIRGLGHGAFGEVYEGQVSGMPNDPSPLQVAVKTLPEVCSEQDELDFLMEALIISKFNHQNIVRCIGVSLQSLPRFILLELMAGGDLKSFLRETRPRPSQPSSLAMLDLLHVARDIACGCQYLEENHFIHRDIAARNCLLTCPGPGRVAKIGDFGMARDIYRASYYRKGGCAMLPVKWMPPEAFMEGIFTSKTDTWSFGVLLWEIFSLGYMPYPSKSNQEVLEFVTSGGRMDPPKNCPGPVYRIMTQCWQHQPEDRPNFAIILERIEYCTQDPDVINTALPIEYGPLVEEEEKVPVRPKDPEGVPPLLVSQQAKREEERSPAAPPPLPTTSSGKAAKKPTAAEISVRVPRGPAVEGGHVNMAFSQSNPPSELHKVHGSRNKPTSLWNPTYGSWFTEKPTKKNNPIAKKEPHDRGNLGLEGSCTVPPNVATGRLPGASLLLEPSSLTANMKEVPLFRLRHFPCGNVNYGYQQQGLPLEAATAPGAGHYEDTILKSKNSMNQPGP
Protocol: as §1

[1] = tested on: ALK L1196M-TEL Ba/F3 cells; test: Anti-proliferation assay (CTG), ALK L1196M-TEL Ba/F3; format: cell-based; conditions: for GI50: Mus musculus, BaF3, read-out: GI50 Ba/F3 cell lines ALKL1196M-TEL; for differential cytotoxicity against ALK-L1196M Ba/F3 cells vs. parental Ba/F3 cells compared with crizotinib: in words
Protocol: (§2) ALK wt-TEL, ALK L1196M-TEL transformed Ba/F3 and H2228 cell lines were cultured in RPMI1640 (Welgene, # LM011-01). […] Parental Ba/F3 cells were cultured in RPMI1640 media supplemented with 10% foetal bovine serum and 1% penicillin/streptomycin solution in the presence of IL-3. The cells were maintained in a humidified atmosphere containing 5% CO2 at 37 °C.
(§3) Cells (ALK wt-TEL, ALK L1196M-TEL and Parental Ba/F3: 1 × 10^4, H2228: 5 × 10^3) were plated in 96 well tissue culture plates. Each compound was added to each well at 10 dose points of three-fold serial dilution in DMSO. After treatment with each compound for 72 h, CTG assay solution (Promega, # G7572) was added to each well.

H2228 (EML4-ALK) cells = test: Anti-proliferation assay (CTG), H2228; format: cell-based; conditions: mean ± SD of three independent experiments; for GI50: Homo sapiens, NCI-H2228, 72 h; for GI50 H2228 (EML4-ALK): 72 h
Protocol: as §2, §3

Parental Ba/F3 cells = test: Anti-proliferation assay (CTG), parental Ba/F3; format: cell-based; conditions: with IL-3, mean ± SD of three independent experiments; for GI50 Ba/F3 cell lines Parental: 72 h; for GI50: Mus musculus, BaF3, 72 h, read-out: GI50 Ba/F3 cell lines Parental
Protocol: as §2, §3

ALK wt-TEL Ba/F3 cells = test: Anti-proliferation assay (CTG), ALK wt-TEL Ba/F3; format: cell-based; conditions: 72 h, CTG, mean ± SD of three independent experiments; for GI50: Mus musculus, BaF3, read-out: GI50 Ba/F3 cell lines ALK wt-TEL
Protocol: as §2, §3

[2] = Permeability assessment using Caco-2 cells; format: in vitro ADME, human; conditions: human; for efflux ratio at 120 min, 10 µM / Papp B→A at 120 min, 10 µM: Caco-2, 10 µM
Protocol: (§4) Stock solutions (10 mM) of reference compounds and 10g were diluted to a concentration of 10 µM with the transport buffer (HBSS + 1%BSA) and the test compounds were applied to the apical or basolateral side of the cell monolayer. […] In addition, the efflux ratio of each compound was also determined. Reference compounds and 10g were quantified by LC-MS/MS analysis based on the peak area ratio of analyte/the internal standard.

Caco-2 cells = test: Permeability assessment using Caco-2 cells; format: in vitro ADME, human; conditions: P-gp substrate status from efflux ratio
Protocol: as §4

[3] = 72 h, CTG, mean ± SD of three independent experiments
[4] = Caco-2, Caco-2, 10 µM, 120 min, 37 °C, HBSS + 1%BSA, read-out: Mean Papp A to B
[5] = Caco-2, Caco-2, 10 µM, 120 min, read-out: Mean recovery % A to B
[6] = Caco-2, Caco-2, 10 µM, 120 min, read-out: Mean recovery % B to A
[7] = Caco-2, Caco-2 permeability class from Papp (A to B), read-out: Rank Papp

ALK-L1196M, sequence (Q9UM73 19-1620 L1196M): as the sequence (Q9UM73 19-1620) above, with L1178M counted along it

## CN(C)c1ccc(C(=O)Nc2n[nH]c3ncc(S(=O)(=O)c4cccc(F)c4)cc23)cc1 [10e, 4-(Dimethylamino)-N-(5-((3-fluorophenyl)sulfonyl)-1H-pyrazolo[3,4-b]pyridin-3-yl)benzamide]
ALK-L1196M
  IC50: 0.7 nM
ALK-wt
  IC50: 7.3 nM
[1]; [3]
  GI50: 4550 ± 720 nM
[1]
  differential cytotoxicity against ALK-L1196M Ba/F3 cells vs. parental Ba/F3 cells compared with crizotinib: higher differential cytotoxicities
H2228 (EML4-ALK) cells
  GI50: 8.54 ± 0.78 µM
Parental Ba/F3 cells
  GI50 Ba/F3 cell lines Parental: Inactive
ALK wt-TEL Ba/F3 cells
  GI50: 1.77 ± 0.69 µM

## CN1CCN(c2cccc(C(=O)Nc3n[nH]c4ncc(S(=O)(=O)c5cccc(F)c5)cc34)c2)CC1 [10h, N-(5-((3-Fluorophenyl)sulfonyl)-1H-pyrazolo[3,4-b]pyridin-3-yl)-3–(4-methylpiperazin-1-yl)benzamide]
[1]; [3]
  GI50: 2280 ± 590 nM
[1]
  differential cytotoxicity against ALK-L1196M Ba/F3 cells vs. parental Ba/F3 cells compared with crizotinib: higher differential cytotoxicities
H2228 (EML4-ALK) cells
  GI50 H2228 (EML4-ALK): Inactive
Parental Ba/F3 cells
  GI50: 15.2 ± 0.52 µM
ALK wt-TEL Ba/F3 cells
  GI50: 3.35 ± 0.24 µM

## O=C(Nc1n[nH]c2ncc(S(=O)(=O)c3cccc(F)c3)cc12)c1cccc(C(F)(F)F)c1 [10b, N-(5-((3-Fluorophenyl)sulfonyl)-1H-pyrazolo[3,4-b]pyridin-3-yl)-3-(trifluoromethyl)benzamide]
ALK-wt
  IC50 ALK-wt: little to no activity

## COc1ccc(C(=O)Nc2n[nH]c3ncc(S(=O)(=O)c4cccc(F)c4)cc23)cc1 [10d, N-(5-((3-Fluorophenyl)sulfonyl)-1H-pyrazolo[3,4-b]pyridin-3-yl)-4-methoxybenzamide]
ALK-L1196M; IC50 19 nM vs 980 nM of crizotinib
  activity against ALK-L1196M relative to crizotinib: 50 fold
ALK-L1196M
  IC50: 19 nM
ALK-wt
  IC50: 69 nM
[1]; [3]
  GI50 Ba/F3 cell lines ALKL1196M-TEL: Inactive
H2228 (EML4-ALK) cells
  GI50 H2228 (EML4-ALK): Inactive
Parental Ba/F3 cells
  GI50 Ba/F3 cell lines Parental: Inactive
ALK wt-TEL Ba/F3 cells
  GI50 Ba/F3 cell lines ALK wt-TEL: Inactive

## Nc1ccc(C(=O)Nc2n[nH]c3ncc(S(=O)(=O)c4cccc(F)c4)cc23)cc1 [compound 12, 4-Amino-N-(5-((3-fluorophenyl)sulfonyl)-1H-pyrazolo[3,4-b]pyridin-3-yl)benzamide]
[1]; [3]
  GI50: 1980 ± 280 nM
[1]
  differential cytotoxicity against ALK-L1196M Ba/F3 cells vs. parental Ba/F3 cells compared with crizotinib: higher differential cytotoxicities
H2228 (EML4-ALK) cells
  GI50: 4.03 ± 1.81 µM
Parental Ba/F3 cells
  GI50 Ba/F3 cell lines Parental: Inactive
ALK wt-TEL Ba/F3 cells
  GI50: 3.87 ± 1.54 µM

## O=C(Nc1n[nH]c2ncc(S(=O)(=O)c3cccc(F)c3)cc12)c1ccc(C(F)(F)F)cc1 [10c, N-(5-((3-Fluorophenyl)sulfonyl)-1H-pyrazolo[3,4-b]pyridin-3-yl)-4-(trifluoromethyl)benzamide]
ALK-wt
  IC50 ALK-wt: little to no activity

## CC(C)NCC(O)COc1cccc2ccccc12 (centres unmarked) [Propranolol]
[2]; [4]
  Papp A→B at 120 min, 10 µM: 16.1 ×10⁻⁶ cm/s
[2]; [5]
  recovery at 120 min, 10 µM: 84.8%
[2]; [6]
  recovery at 120 min, 10 µM: 91.7%
[2]; [7]
  Papp A→B at 120 min, 10 µM: > 10 ×10⁻⁶ cm/s
[2]; 120 min
  efflux ratio at 120 min, 10 µM: 0.52
[2]; 120 min, 37 °C, HBSS + 1%BSA
  Papp B→A at 120 min, 10 µM: 8.42 ×10⁻⁶ cm/s

## CS(=O)(=O)Nc1ccc(C(=O)Nc2n[nH]c3ncc(S(=O)(=O)c4cccc(F)c4)cc23)cc1 [13c, N-(5-((3-Fluorophenyl)sulfonyl)-1H-pyrazolo[3,4-b]pyridin-3-yl)-4-(methylsulfonamido)benzamide]
[1]; [3]
  GI50: 5620 ± 2340 nM
[1]
  differential cytotoxicity against ALK-L1196M Ba/F3 cells vs. parental Ba/F3 cells compared with crizotinib: higher differential cytotoxicities
H2228 (EML4-ALK) cells
  GI50: 9.21 ± 1.92 µM
Parental Ba/F3 cells
  GI50 Ba/F3 cell lines Parental: inactive
ALK wt-TEL Ba/F3 cells
  GI50: 4.71 ± 3.02 µM

## N#Cc1ccc(C(=O)Nc2n[nH]c3ncc(S(=O)(=O)c4cccc(F)c4)cc23)cc1 [10a, 4-Cyano-N-(5-((3-fluorophenyl)sulfonyl)-1H-pyrazolo[3,4-b]pyridin-3-yl)benzamide]
ALK-wt
  IC50: 453 nM

## O=C(Nc1n[nH]c2ncc(S(=O)(=O)c3cccc(F)c3)cc12)c1ccc(N2CCOCC2)cc1 [10f, N-(5-((3-Fluorophenyl)sulfonyl)-1H-pyrazolo[3,4-b]pyridin-3-yl)-4-morpholinobenzamide]
ALK-L1196M
  IC50: 1.4 nM
ALK-wt
  IC50 ALK-wt: Picomolar inhibitory activity
[1]; [3]
  GI50: 2530 ± 1500 nM
[1]
  differential cytotoxicity against ALK-L1196M Ba/F3 cells vs. parental Ba/F3 cells compared with crizotinib: higher differential cytotoxicities
H2228 (EML4-ALK) cells
  GI50: 1.69 ± 0.4 µM
Parental Ba/F3 cells
  GI50 Ba/F3 cell lines Parental: Inactive
ALK wt-TEL Ba/F3 cells
  GI50: 0.916 ± 0.5 µM

## C[C@@H](Oc1cc(-c2cnn(C3CCNCC3)c2)cnc1N)c1c(Cl)ccc(F)c1Cl [crizotinib, reference compound]
Parental Ba/F3 cells
  GI50: 1.65 ± 0.13 µM

## C[C@H]1O[C@@H](O[C@H]2[C@@H](O)C[C@H](O[C@H]3[C@@H](O)C[C@H](O[C@H]4CC[C@@]5(C)[C@H](CC[C@@H]6[C@@H]5C[C@@H](O)[C@]5(C)[C@@H](C7=CC(=O)OC7)CC[C@]65O)C4)O[C@@H]3C)O[C@@H]2C)C[C@H](O)[C@@H]1O [Digoxin]
Caco-2 cells
  Rank P-gp: Substrate
[2]; [4]
  Papp A→B at 120 min, 10 µM: 0.43 ×10⁻⁶ cm/s
[2]; [5]
  recovery at 120 min, 10 µM: 96.8%
[2]; [6]
  recovery at 120 min, 10 µM: 95.1%
[2]; [7]
  Papp A→B at 120 min, 10 µM: < 2.5 ×10⁻⁶ cm/s
[2]; 120 min
  efflux ratio at 120 min, 10 µM: 20.2
[2]; 120 min, 37 °C, HBSS + 1%BSA
  Papp B→A at 120 min, 10 µM: 8.6 ×10⁻⁶ cm/s
